The structures appear in SMILES notation.

The results in this text go back to patent US11939327B2, “Heterocyclic compounds” (Takeda Pharmaceutical Company Limited, priority 2017, dated 2024).

T1 sequence (P42261 19-906 isoform P42261-2 limits assumed): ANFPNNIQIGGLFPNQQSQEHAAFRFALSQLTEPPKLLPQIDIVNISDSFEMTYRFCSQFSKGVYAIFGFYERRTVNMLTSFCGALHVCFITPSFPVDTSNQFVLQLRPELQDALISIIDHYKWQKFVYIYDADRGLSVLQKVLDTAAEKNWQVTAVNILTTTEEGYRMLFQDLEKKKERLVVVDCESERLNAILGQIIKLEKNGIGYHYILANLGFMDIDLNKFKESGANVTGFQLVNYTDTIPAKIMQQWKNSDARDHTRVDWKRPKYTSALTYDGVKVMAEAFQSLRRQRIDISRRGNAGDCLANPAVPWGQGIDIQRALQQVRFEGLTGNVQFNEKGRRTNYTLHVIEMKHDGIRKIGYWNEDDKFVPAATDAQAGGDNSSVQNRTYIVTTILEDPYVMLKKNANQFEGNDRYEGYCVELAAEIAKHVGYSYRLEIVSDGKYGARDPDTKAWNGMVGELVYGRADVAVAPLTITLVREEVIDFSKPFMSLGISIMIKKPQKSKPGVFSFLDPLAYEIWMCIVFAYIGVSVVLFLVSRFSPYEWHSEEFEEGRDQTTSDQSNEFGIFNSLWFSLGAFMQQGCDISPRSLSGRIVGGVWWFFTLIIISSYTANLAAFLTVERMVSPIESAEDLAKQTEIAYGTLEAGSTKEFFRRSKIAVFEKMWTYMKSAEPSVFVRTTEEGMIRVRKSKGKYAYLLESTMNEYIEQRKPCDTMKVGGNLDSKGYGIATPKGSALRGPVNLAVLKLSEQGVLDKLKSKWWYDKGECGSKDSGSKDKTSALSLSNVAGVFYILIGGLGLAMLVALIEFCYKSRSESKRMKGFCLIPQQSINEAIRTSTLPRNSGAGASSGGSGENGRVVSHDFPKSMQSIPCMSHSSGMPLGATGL
T1 sequence (Q9Y698 whole entry partner): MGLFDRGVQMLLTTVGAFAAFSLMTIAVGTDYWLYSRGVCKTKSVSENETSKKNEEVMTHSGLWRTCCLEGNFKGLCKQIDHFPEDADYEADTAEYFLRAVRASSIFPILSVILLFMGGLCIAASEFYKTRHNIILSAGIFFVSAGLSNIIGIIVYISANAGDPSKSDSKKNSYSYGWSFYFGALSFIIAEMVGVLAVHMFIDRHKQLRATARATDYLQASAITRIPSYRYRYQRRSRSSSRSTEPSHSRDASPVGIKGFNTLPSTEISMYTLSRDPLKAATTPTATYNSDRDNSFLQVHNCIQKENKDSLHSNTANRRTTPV

This test has as its target T1, human GluR1 flip (Homo sapiens, UniProt P42261).
T1 construct: expressed in transfected cells; host or cells: CHO-K1
The experiment in a line: AMPA receptor function-enhancing activity using calcium influx as index (CHO-K1/GluR1 flip/stargazin-expressing cells). The test is classed as cell-based. The note with it: CHO-K1, test compound 30 μM with 3 mM glutamic acid, 100% = 3 mM glutamic acid + 300 μM cyclothiazide, 0% = 3 mM glutamic acid alone, read-out: hGluR1 flip/30 μM (%). From the text: Experimental Example 1 Measurement method of AMPA receptor function-enhancing activity of compound using calcium influx as index
(1) Construction of Expression Gene
Human GluR1 flip cDNA was amplified by PCR method using forward primer […] (SEQ ID NO: 1) and reverse primer […] (SEQ ID NO: 2) artificially synthesized using human brain-derived cDNA (BD Bioscience) as a template. The amplified product was digested with restriction enzymes EcoRI, NotI (TAKARA SHUZO CO. LTD.) and incorporated into the same site of pcDNA3.1(+) (Invitrogen) to construct pcDNA3.1(+)/human GluR1 flip gene. Human stargazin cDNA was amplified by PCR method using forward primer […] (SEQ ID NO: 3) and reverse primer […] (SEQ ID NO: 4) artificially synthesized using human hippocampus cDNA as a template. The amplified product was digested with restriction enzymes XhoI, BamHI (TAKARA SHUZO CO. LTD.) and incorporated into the same site of pcDNA3.1(−) (Invitrogen) to construct pcDNA3.1 Zeo(−)/human stargazing gene.
(2) Construction of GluR1 Flip/Stargazin Expressing Cell
CHO-K1 cells passaged in a culture medium (Ham's F12 medium (Invitrogen) added with 10% inactivated fetal bovine serum (Morgate) and penicillin, streptomycin (Invitrogen)) were detached using 0.05% trypsin and 0.53 mM EDTA (Invitrogen) diluted with D-PBS(−). The detached cells were suspended in a culture medium, and recovered by centrifugation at 1,000 rpm. The recovered cells were re-suspended in D-PBS(−) and added into 0.4 cm electroporation cuvette (BioRad). pcDNA3.1(+)/human GluR1 flip gene (5 μg) and pcDNA3.1 Zeo(−)/human stargazin gene (15 μg) were added, and introduced into CHO-K1 cells under the conditions of 950 μFd, […] and using Gene Pulser II (BioRad). The introduced cells were cultured overnight in a culture medium. The next day, using a selection medium (culture medium added with zeocin (Invitrogen) at 250 μg/mL), the cells were plated in a 96 well plate at 250 cells/well. The clones showing drug resistance were selected, and GluR1 flip/stargazin expression clones were selected by an assay method shown below using calcium influx as an index.
(3) Measurement Method of AMPA Receptor Function-Enhancing Activity of Compound, Using Calcium Influx as an Index
CHO-K1/GluR1 flip/stargazin-expressing cells were plated on a 384 well black bottom transparent plate, and cultured for 2 days in a CO2 incubator (SANYO ELECTRIC Co. Ltd.) at 37° C. The medium of the cell plate was removed. A calcium indicator (Calcium5 Assay Kit, Molecular Devices) was diluted with an assay buffer (HBSS (Thermo Fisher Scientific), 0.1% BSA (Merck Millipoer) and 10 mM HEPES (Thermo Fisher Scientific)), and 1.25 mM probenecid (Dojindo Laboratories) was added thereto. The mixture prepared above was added at 30 μL/well (100 μL/well in case of 96 wells) to the well, and the well was left standing in 37° C., CO2 incubator for 1 hr. The cell plate was set in CellLux (PerkinElmer), a mixture (15 μL) (50 μL/well in case of 96 wells) of […] glutamic acid (final concentration 3 mM) diluted with an assay buffer and a test compound (test compound concentration 30 μM) was added thereto, and variation in the amount of fluorescence was measured for 3 min. The variation of fluorescence level of a well added with final concentration 3 mM of glutamic acid and 300 μM cyclothiazide (TOCRIS) was defined as 100%, the variation of fluorescence level of a well added with final concentration 3 mM of glutamic acid alone was defined as 0%, and the activity of the compound was calculated by the following formula. activity (%)=(X−C)/(T−C)×100 • T: variation of fluorescence level of well added with final concentration 3 mM of glutamic acid and 300 μM cyclothiazide • C: variation of fluorescence level of well added with final concentration 3 mM of glutamic acid alone • X: variation of fluorescence level of well added with test compound
Turning to `O=C(c1ccc(-c2c(F)ccc3c2nc(C(F)(F)F)n3CC(F)F)cc1)N1CCOCC1` [Example 36, (4-(1-(2,2-difluoroethyl)-5-fluoro-2-(trifluoromethyl)-1H-benzimidazol-4-yl)phenyl)(morpholin-4-yl)methanone], the activation at 30 µM came to 93.5%.

As to `CO[C@@H]1CCN(C(=O)c2ccc(-c3nccc4c3nc(C(F)(F)F)n4CC(F)F)cc2F)C1` [Example 37, (4-(1-(2,2-difluoroethyl)-2-(trifluoromethyl)-1H-imidazo[4,5-c]pyridin-4-yl)-2-fluorophenyl)((3R)-3-methoxypyrrolidin-1-yl)methanone], the activation at 30 µM is 89.8%.

`Cc1cc2c(nc(C(F)(F)F)n2CC(F)F)c(-c2ccc(C(=O)N3CCOCC(F)(F)C3)c(F)c2)n1` [Example 38, (4-(1-(2,2-difluoroethyl)-6-methyl-2-(trifluoromethyl)-1H-imidazo[4,5-c]pyridin-4-yl)-2-fluorophenyl)(6,6-difluoro-1,4-oxazepan-4-yl)methanone]: the activation at 30 µM was determined as 100%.

Regarding `O=C(c1ccc(-c2cccc3c2nc(C(F)(F)F)n3CC(F)F)cn1)N1CCOCC(F)(F)C1` [Example 39, (5-(1-(2,2-difluoroethyl)-2-(trifluoromethyl)-1H-benzimidazol-4-yl)pyridin-2-yl)(6,6-difluoro-1,4-oxazepan-4-yl)methanone], the activation at 30 µM turned out to be 110%.

Consider `O=C(c1ccc(-c2nccc3c2nc(C(F)(F)F)n3CC(F)F)c(F)c1F)N1CCOCC1` [Example 42, (4-(1-(2,2-difluoroethyl)-2-(trifluoromethyl)-1H-imidazo[4,5-c]pyridin-4-yl)-2,3-difluorophenyl)(morpholin-4-yl)methanone], for which the activation at 30 µM came to 83.9%.

On to `C[C@@H]1CN(C(=O)c2ccc(-c3nccc4c3nc(C(F)(F)F)n4CC(F)F)cc2F)CCO1` [Example 44, (4-(1-(2,2-difluoroethyl)-2-(trifluoromethyl)-1H-imidazo[4,5-c]pyridin-4-yl)-2-fluorophenyl)((2R)-2-methylmorpholin-4-yl)methanone], for which the activation at 30 µM amounted to 85.5%.

On to `O=C(c1ccc(-c2cccc3c2nc(C(F)(F)F)n3CC(F)F)nc1)N1CCOCC(F)(F)C1` [Example 46, (6-(1-(2,2-difluoroethyl)-2-(trifluoromethyl)-1H-benzimidazol-4-yl)pyridin-3-yl)(6,6-difluoro-1,4-oxazepan-4-yl)methanone], for which the activation at 30 µM was found to be 77%.

Turning to `O=C(c1ccc(-c2nccc3c2nc(C(F)(F)F)n3CC(F)F)cc1F)N1CCOCC2(CC2)C1` [Example 48, (4-(1-(2,2-difluoroethyl)-2-(trifluoromethyl)-1H-imidazo[4,5-c]pyridin-4-yl)-2-fluorophenyl)(5-oxa-8-azaspiro[2.6]non-8-yl)methanone], the activation at 30 µM was 80.2%.

On to `O=C(c1ccc(-c2nccc3c2nc(C(F)(F)F)n3CC(F)F)cc1)N1CCOCC(F)(F)C1` [Example 50, (4-(1-(2,2-difluoroethyl)-2-(trifluoromethyl)-1H-imidazo[4,5-c]pyridin-4-yl)phenyl)(6,6-difluoro-1,4-oxazepan-4-yl)methanone], for which the activation at 30 µM worked out at 122%.

`O=C(c1ccc(-c2cccc3c2nc(C(F)(F)F)n3CC(F)F)c(F)c1)N1CCOCC1` [Example 51, (4-(1-(2,2-difluoroethyl)-2-(trifluoromethyl)-1H-benzimidazol-4-yl)-3-fluorophenyl)(morpholin-4-yl)methanone]: the activation at 30 µM worked out at 113%.

`COC1CCN(C(=O)c2ccc(-c3nccc4c3nc(C(F)(F)F)n4CC(F)F)cc2F)CC1` [Example 52, (4-(1-(2,2-difluoroethyl)-2-(trifluoromethyl)-1H-imidazo[4,5-c]pyridin-4-yl)-2-fluorophenyl)(4-methoxypiperidin-1-yl)methanone]: the activation at 30 µM stood at 67.1%.

Turning to `O=C(c1ccc(-c2nccc3c2nc(C(F)(F)F)n3CC(F)F)c(F)c1)N1CCOCC1` [Example 53, (4-(1-(2,2-difluoroethyl)-2-(trifluoromethyl)-1H-imidazo[4,5-c]pyridin-4-yl)-3-fluorophenyl)(morpholin-4-yl)methanone], the activation at 30 µM was determined as 69%.
